Measurements: US20100267561A1, “HERBICIDAL PYRIDAZINONE DERIVATIVES” (priority 2007, published 2010)
Where two headings read alike, the source gives them in different places.

Key:
Experiment in all cases: Test B pre-/postemergence plant response
Type in all cases: in vivo
[1] = tested on: green foxtail (Setaria viridis); settings: Setaria viridis, pre-emergence, Preemergence, scale 0 to 100, read-out: Plant response rating, Foxtail, Green
How it was run: (§1)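 Preemergence and postemergence (plants 2-18 cm, 1- to 4-leaf stage) applications used test chemicals in a non-phytotoxic solvent with surfactant. Plants were held in a greenhouse 13 to 15 days, then rated visually against controls on a 0-100 scale (0 no effect, 100 complete control).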

[2] = tested on: morningglory (Ipomoea coccinea); settings: Ipomoea, read-out: Plant response rating, Morningglory; for pest or weed control at 62 g/ha: 62 g ai/ha; for pest or weed control at 62 g/ha / pest or weed control at 125 g/ha / pest or weed control at 250 g/ha: scale 0 to 100; for pest or weed control at 125 g/ha: 125 g ai/ha; for pest or weed control at 250 g/ha: 250 g ai/ha
How it was run: as §1

corn (Zea mays) = settings: Zea mays; for Corn plant response rating (crop injury, 0 = no effect, 100 = complete kill) at 31 g/ha: 31 g ai/ha, 100 complete control; for Corn plant response rating (crop injury, 0 = no effect, 100 = complete kill) at 62 g/ha: 62 g ai/ha; for Corn plant response rating (crop injury, 0 = no effect, 100 = complete kill) at 62 g/ha / Corn plant response rating (crop injury, 0 = no effect, 100 = complete kill) at 125 g/ha / Corn plant response rating (crop injury, 0 = no effect, 100 = complete kill) at 250 g/ha: scale 0 to 100; for Corn plant response rating (crop injury, 0 = no effect, 100 = complete kill) at 125 g/ha: 125 g ai/ha; for Corn plant response rating (crop injury, 0 = no effect, 100 = complete kill) at 250 g/ha: 250 g ai/ha
How it was run: as §1

[3] = tested on: catchweed bedstraw (Galium aparine); settings: Galium aparine, pre-emergence, Preemergence, read-out: Plant response rating, Galium
How it was run: as §1

[4] = tested on: surinam grass (Brachiaria decumbens); settings: Urochloa decumbens, read-out: Plant response rating, Surinam Grass; for pest or weed control at 31 g/ha: 31 g ai/ha, 100 complete control; for pest or weed control at 62 g/ha: 62 g ai/ha; for pest or weed control at 62 g/ha / pest or weed control at 125 g/ha / pest or weed control at 250 g/ha: scale 0 to 100; for pest or weed control at 125 g/ha: 125 g ai/ha; for pest or weed control at 250 g/ha: 250 g ai/ha
How it was run: as §1

[5] = tested on: common ragweed (Ambrosia elation); settings: Ambrosia, read-out: Plant response rating, Ragweed; for pest or weed control at 31 g/ha: 31 g ai/ha, 100 complete control; for pest or weed control at 62 g/ha: 62 g ai/ha; for pest or weed control at 62 g/ha / pest or weed control at 125 g/ha / pest or weed control at 250 g/ha: scale 0 to 100; for pest or weed control at 125 g/ha: 125 g ai/ha; for pest or weed control at 250 g/ha: 250 g ai/ha
How it was run: as §1

[6] = tested on: Italian ryegrass (Lolium multiflorum); settings: Lolium multiflorum, read-out: Plant response rating, Ryegrass, Italian; for pest or weed control at 31 g/ha: 31 g ai/ha, 100 complete control; for pest or weed control at 62 g/ha: 62 g ai/ha; for pest or weed control at 62 g/ha / pest or weed control at 125 g/ha / pest or weed control at 250 g/ha: scale 0 to 100; for pest or weed control at 125 g/ha: 125 g ai/ha; for pest or weed control at 250 g/ha: 250 g ai/ha
How it was run: as §1

[7] = post-emergence, Postemergence, scale 0 to 100, 0 no effect
[8] = pre-emergence, Preemergence, 0 to 100 scale, 0 no effect

Cc1cc(-c2ccc(C(F)(F)F)cc2)nn1-c1c(O)cnn(C)c1=O [Compound 1, 5-hydroxy-2-methyl-4-[5-methyl-3-[4-(trifluoromethyl)phenyl]-1H-pyrazol-1-yl]-3(2H)-pyridazinone]
pest or weed control at 62 g/ha ([1]; 62 g ai/ha): 100% | pest or weed control at 125 g/ha ([1]; 125 g ai/ha): 100% | pest or weed control at 250 g/ha ([1]; 250 g ai/ha): 100% | pest or weed control at 62 g/ha ([2]; post-emergence, Postemergence): 0% | pest or weed control at 125 g/ha ([2]; post-emergence, Postemergence): 0% | pest or weed control at 250 g/ha ([2]; post-emergence, Postemergence): 0% | pest or weed control at 31 g/ha ([2]; pre-emergence, Preemergence, 31 g ai/ha, 0 to 100 scale, 0 no effect, 100 complete control): 0% | pest or weed control at 62 g/ha ([2]; pre-emergence, Preemergence): 0% | pest or weed control at 125 g/ha ([2]; pre-emergence, Preemergence): 0% | pest or weed control at 250 g/ha ([2]; pre-emergence, Preemergence): 0% | Corn plant response rating (crop injury, 0 = no effect, 100 = complete kill) at 31 g/ha (corn (Zea mays); [7]): 10% | Corn plant response rating (crop injury, 0 = no effect, 100 = complete kill) at 62 g/ha (corn (Zea mays); post-emergence, Postemergence): 100% | Corn plant response rating (crop injury, 0 = no effect, 100 = complete kill) at 125 g/ha (corn (Zea mays); post-emergence, Postemergence): 100% | Corn plant response rating (crop injury, 0 = no effect, 100 = complete kill) at 250 g/ha (corn (Zea mays); post-emergence, Postemergence): 100% | Corn plant response rating (crop injury, 0 = no effect, 100 = complete kill) at 31 g/ha (corn (Zea mays); [8]): 90% | Corn plant response rating (crop injury, 0 = no effect, 100 = complete kill) at 62 g/ha (corn (Zea mays); pre-emergence, Preemergence): 95% | Corn plant response rating (crop injury, 0 = no effect, 100 = complete kill) at 125 g/ha (corn (Zea mays); pre-emergence, Preemergence): 100% | Corn plant response rating (crop injury, 0 = no effect, 100 = complete kill) at 250 g/ha (corn (Zea mays); pre-emergence, Preemergence): 100% | pest or weed control at 31 g/ha ([3]; 31 g ai/ha, 0 to 100 scale, 0 no effect, 100 complete control): 0% | pest or weed control at 62 g/ha ([3]; 62 g ai/ha, scale 0 to 100): 0% | pest or weed control at 125 g/ha ([3]; 125 g ai/ha, scale 0 to 100): 0% | pest or weed control at 250 g/ha ([3]; 250 g ai/ha, scale 0 to 100): 0% | pest or weed control at 31 g/ha [4, 7]: 100% | pest or weed control at 62 g/ha ([4]; post-emergence, Postemergence): 100% | pest or weed control at 125 g/ha ([4]; post-emergence, Postemergence): 100% | pest or weed control at 250 g/ha ([4]; post-emergence, Postemergence): 100% | pest or weed control at 31 g/ha [4, 8]: 100% | pest or weed control at 62 g/ha ([4]; pre-emergence, Preemergence): 100% | pest or weed control at 125 g/ha ([4]; pre-emergence, Preemergence): 100% | pest or weed control at 250 g/ha ([4]; pre-emergence, Preemergence): 100% | pest or weed control at 31 g/ha [5, 7]: 0% | pest or weed control at 62 g/ha ([5]; post-emergence, Postemergence): 0% | pest or weed control at 125 g/ha ([5]; post-emergence, Postemergence): 50% | pest or weed control at 250 g/ha ([5]; post-emergence, Postemergence): 55% | pest or weed control at 31 g/ha [5, 8]: 0% | pest or weed control at 62 g/ha ([5]; pre-emergence, Preemergence): 0% | pest or weed control at 125 g/ha ([5]; pre-emergence, Preemergence): 0% | pest or weed control at 250 g/ha ([5]; pre-emergence, Preemergence): 0% | pest or weed control at 31 g/ha [6, 7]: 95% | pest or weed control at 62 g/ha ([6]; post-emergence, Postemergence): 100% | pest or weed control at 125 g/ha ([6]; post-emergence, Postemergence): 100% | pest or weed control at 250 g/ha ([6]; post-emergence, Postemergence): 100% | pest or weed control at 31 g/ha [6, 8]: 80% | pest or weed control at 62 g/ha ([6]; pre-emergence, Preemergence): 100% | pest or weed control at 125 g/ha ([6]; pre-emergence, Preemergence): 100% | pest or weed control at 250 g/ha ([6]; pre-emergence, Preemergence): 100%
